Measurements reported in paper PMC5052704, “Transition metal ion FRET uncovers K^+ regulation of a neurotransmitter/sodium symporter” (Nature Communications, 2016).

Biological target: T1, LeuT (leucine transporter) (Aquifex aeolicus, UniProt O67854, R30A/A313H/A317H/K398C)
T1 construct: gene snf; full-length LeuT, C-terminal octahistidine tag with thrombin site, pET16b derivative, expressed in E. coli C41, purified in DDM; tmFRET variants labelled with fluorescein-5-maleimide
Experiment: scintillation proximity assay, Na+-dependent [3H]leucine binding
Details: 5 μM [3H]leucine; pH 7.5; DDM; fluorescein-labelled at K398C; labelled compound

## CC(C)C[C@H](N)C(=O)O [leucine]
  scintillation proximity assay, Na+-dependent [3H]leucine binding: Na^+ dependence of [^3H]leucine binding to R30A^tmFRET
